Measured values: patent publication US20250312411A1, “Treatment of Multi-Drug-Resistant Cancers Using Nanoparticulate Drug Delivery Vehicles” (priority 2024, published 2025)

Experiments:
Type in all cases: cell-based
[1] = system: tunneling nanotubes (TNTs) in 50:50 DS/MDR MDA-MB-231 cells; test: Number of TNTs/cm^2 counted in 50:50 DS/MDR co-culture after treatment; details: 50:50 DS/MDR ratio of MDA-MB-231 cells, n=25, FIG. 4C
DS TNBC cells = test: Wound healing assay (cell migration), drug sensitive cells; details: AS-LNP at 10 PM and 30 PM, n=10, FIG. 6A
Excerpt: (§1) SNARE proteins mediate EV release but also mediate the fusion of TNTs with recipient cells.

MDR TNBC cells = test: Wound healing assay (cell migration), MDR cells; details: AS-LNP at 10 PM and 30 PM, n=10, FIG. 6B
Excerpt: as §1

| SMILES | number of TNTs/cm^2 [1] | cell migration in wound healing assay (DS TNBC cells) | cell migration in wound healing assay (MDR TNBC cells) |
| --- | --- | --- | --- |
| C/C1=C\[C@@H](C)C/C=C/[C@H]2[C@@H]3O[C@]3(C)[C@@H](C)[C@H]3[C@H](Cc4c[nH]c5ccccc45)NC(=O)[C@]32C(=O)/C=C/C(=O)[C@@H]1O [CA, chaetoglobosin A] | significantly reduced the number of TNTs | – | – |
| O=C(/C=C/c1ccc(/C=C/C(=O)Nc2ccc(C3=NCCN3)cc2)cc1)Nc1ccc(C2=NCCN2)cc1 [GW4869] | – | did not decrease cell migration | did not decrease cell migration |
| CN(C)C(=N)N=C(N)N [metformin] | more effective in reducing the number of TNTs | – | – |
